Patent US20040121994A1, “Novel amides that activate soluble guanylate cyclase” (priority 2002, published 2004)

Biological target: T1, soluble guanylate cyclase (sGC), α1 and β1 subunits of guanylate cyclase expressed in Sf9 cells (Homo sapiens, UniProt Q02108+Q02153)
T1 construct: made in house; host or cells: Sf9 insect cells (baculovirus co-infection)
T1 sequence (Q02108 1-690): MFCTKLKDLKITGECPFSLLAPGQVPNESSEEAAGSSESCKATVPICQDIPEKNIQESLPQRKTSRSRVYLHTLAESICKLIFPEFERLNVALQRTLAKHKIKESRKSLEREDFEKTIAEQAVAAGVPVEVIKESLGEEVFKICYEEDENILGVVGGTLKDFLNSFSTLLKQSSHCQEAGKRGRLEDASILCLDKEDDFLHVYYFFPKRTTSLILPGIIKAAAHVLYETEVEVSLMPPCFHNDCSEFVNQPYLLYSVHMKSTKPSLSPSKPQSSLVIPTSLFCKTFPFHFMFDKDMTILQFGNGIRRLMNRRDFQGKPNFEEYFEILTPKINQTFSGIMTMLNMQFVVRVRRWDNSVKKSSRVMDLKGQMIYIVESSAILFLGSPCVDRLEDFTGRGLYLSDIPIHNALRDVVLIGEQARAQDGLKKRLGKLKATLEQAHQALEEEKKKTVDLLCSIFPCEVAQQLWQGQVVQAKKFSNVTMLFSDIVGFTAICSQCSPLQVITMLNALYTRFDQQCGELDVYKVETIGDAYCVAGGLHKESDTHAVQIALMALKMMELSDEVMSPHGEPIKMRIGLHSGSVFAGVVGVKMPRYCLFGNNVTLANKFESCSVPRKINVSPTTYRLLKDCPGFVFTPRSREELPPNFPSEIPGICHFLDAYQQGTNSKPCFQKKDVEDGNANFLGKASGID
T1 sequence (Q02153 1-619): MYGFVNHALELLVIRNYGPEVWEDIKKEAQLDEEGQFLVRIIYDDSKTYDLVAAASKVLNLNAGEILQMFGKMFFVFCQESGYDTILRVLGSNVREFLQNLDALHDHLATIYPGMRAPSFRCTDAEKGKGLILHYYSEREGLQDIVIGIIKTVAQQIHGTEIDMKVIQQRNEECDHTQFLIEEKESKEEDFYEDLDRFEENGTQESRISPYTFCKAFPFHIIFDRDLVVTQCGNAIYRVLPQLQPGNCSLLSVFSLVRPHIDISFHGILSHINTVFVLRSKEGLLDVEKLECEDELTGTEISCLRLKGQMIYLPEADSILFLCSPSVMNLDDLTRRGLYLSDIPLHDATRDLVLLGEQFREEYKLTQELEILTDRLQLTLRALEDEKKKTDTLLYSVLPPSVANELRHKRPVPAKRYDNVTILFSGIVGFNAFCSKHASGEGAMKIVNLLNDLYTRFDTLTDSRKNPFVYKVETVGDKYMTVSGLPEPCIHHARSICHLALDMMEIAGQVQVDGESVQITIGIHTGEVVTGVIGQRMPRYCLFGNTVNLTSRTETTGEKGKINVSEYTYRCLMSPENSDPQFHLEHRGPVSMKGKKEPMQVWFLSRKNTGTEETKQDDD
Experiment: Guanylate cyclase assay (formation of cyclic GMP from GTP)
Type: biochemical
Conditions: for Mean activation at 100 μM: (activity of compound at 100 μM with 1 μM SNP)−(activity of compound at 100 μM)/(activity of SNP at 1 μM)−(basal activity of sGC); for Mean efficacy of compound combined with 1 μM of SNP, [%]: compound at 100 μM with 1 μM sodium nitro prusside (SNP); for Mean efficacy of compound combined with 1 μM of SNP, [%] / Emax at 100 µM: normalized with the activity of 100 μM YC-1 (without SNP) as 100%; for Emax at 100 µM: compound at 100 μM without SNP, read-out: Mean basal efficacy of compound alone at 100 μM, [%]
Method: Sf9 cells were cultured in Sf-90011 medium supplemented with 10% (v/v) fetal calf serum at 28° C. to give a count of 6×10^5 cells/ml. The cells were then infected with a mixture of the virus stocks for the α1 and β1 subunits of guanylate cyclase at a multiplicity of infection of 0.1 pfu/cell. The cells were harvested 72 hours after infection and were pelleted by centrifugation. The resulting cell pellets were homogenized with Polytron homogenizer in 3 volumes of 20 mM Tris-HCl (pH 7.6) containing 1 mM EDTA, 5 mM dithiothreitol, 90 mM NaCl, 10% glycerol, and protease inhibitors mix (Roche Molecular Biochemicals). The homogenate was centrifuged at 50,000×g for 60 minutes and the supernatant was aliquotted and stored at −80° C.
Compounds of the present invention were dissolved in DMSO to make 100 mM and saved as stocks at −20° C. When compounds were tested, prepared 10-fold concentrated solutions with 10% DMSO. Then added 10 μl of 10-fold concentrated compound solutions to the reaction mixture of total 100 μl.
Guanylate cyclase activity was measured by the formation of cyclic GMP from GTP in a total volume of 100 μl. Guanylate cyclase-expressed Sf9 cell high-speed supernatant was used as an enzyme source for the assay. The reaction mixture containing 0.1 μl enzyme (Sf9 high-speed sup), compound solution, 50 mM Tris-HCl (pH 7.6), 4 mM MgCl2, 0.5 mM IBMX, 15 mM creatine phosphate, 20 μg creatine phosphokinase, 0.1% BSA and 1 mM GTP was incubated at 37° C. for 15 minutes. After the reaction, 0.9 ml of 50 mM sodium acetate buffer (pH 5.8) was added followed by boiling for 3 minutes to stop the reaction. The solution was centrifuged at 3000 rpm for 15 minutes at room temperature and cyclic GMP in 20 μl of the resulting supernatant was measured according to the protocol of Amersham cyclic GMP enzymeimmunoassay system (purchased from Sigma, catalogue number RPN 226).
Compounds of the present invention were tested at 100 μM with and without 1 μM sodium nitro prusside (SNP). 1-Benzyl-3-hydroxymethyl-2-furylindazole (YC-1) was included as a standard for each assay. The data was normalized with the activity of 100 μM YC-1 (without SNP) as 100%. Mean basal efficacy, in Table 1, was expressed as a percentage of 100 μM YC-1 (without SNP).
The mean activation, in Table 1, was calculated based on the formula: (activity of compound of the present invention at 100 μM with 1 μM SNP)−(activity of compound of the present invention at 100 μM)/(activity of SNP at 1 μM)−(basal activity of sGC).

| SMILES | Mean activation at 100 μM | Mean efficacy of compound combined with 1 μM of SNP, [%] | Emax at 100 µM [%] |
| --- | --- | --- | --- |
| Cc1ccc(Sc2ccccc2CCC(=O)NCCCCO)cc1 [Example 5, N-(4-hydroxybutyl)-3-{2-[(4-methylphenyl)thio]phenyl}propanamide] | 5.1 | 96 | 14 |
| CC(O)CCCNC(=O)CCc1ccccc1Sc1ccc(Cl)cc1 (centres unmarked) [Example 9, 3-{2-[(4-chlorophenyl)thio]phenyl}-N-(4-hydroxypentyl)propanamide] | 4.0 | 22 | 4 |
| O=C(/C=C/c1c(F)cccc1Sc1ccc(Cl)cc1)NCCCCO [Example 41, (2E)-3-{2-[(4-chlorophenyl)thio]-6-fluorophenyl}-N-(4-hydroxybutyl)acrylamide] | 3.8 | 69 | 5 |
| O=C(CCc1ccccc1Sc1ccc(Cl)cc1)NCCCCCO [Example 3, 3-{2-[(4-chlorophenyl)thio]phenyl}-N-(5-hydroxypentyl)propanamide] | 2.3 | 29 | 2 |
| O=C(CCc1ccccc1Sc1ccc(Cl)cc1)NCCCCO [Example 1, 3-{2-[(4-chlorophenyl)thio]phenyl}-N-(4-hydroxybutyl)propanamide] | 2.4 | 25 | 4 |
| CC(O)CCNC(=O)/C=C/c1ccccc1Sc1ccc(Cl)cc1 (centres unmarked) [Example 38, (2E)-3-{2-[(4-chlorophenyl)thio]phenyl}-N-(3-hydroxybutyl)acrylamide] | 19.0 | 259 | 60 |
| CNCCCCNC(=O)CCc1ccccc1Sc1ccc(Cl)cc1 [Example 13, 3-{2-[(4-chlorophenyl)thio]phenyl}-N-[4-(methylamino)butyl]propanamide] | 2.4 | 25 | 4 |
| CONCCCCNC(=O)CCc1ccccc1Sc1ccc(Cl)cc1 [Example 12, 3-{2-[(4-chlorophenyl)thio]phenyl}-N-[4-(methoxyamino)butyl]propanamide] | 1.5 | 20 | 2 |
| Cc1ccc(Sc2ccccc2/C=C/C(=O)NC(C)CCCC(C)(C)O)c(C)c1 (centres unmarked) [Example 53, (2E)-3-{2-[(2,4-dimethylphenyl)thio]phenyl}-N-(5-hydroxy-1,5-dimethylhexyl)acrylamide] | 1.7 | 10 | 4 |
| CC(O)CNC(=O)/C=C/c1ccccc1Sc1ccc(Cl)cc1 (centres unmarked) [Example 37, (2E)-3-{2-[(4-chlorophenyl)thio]phenyl}-N-(2-hydroxypropyl)acrylamide] | 30.6 | 405 | 70 |

Results, then the molecule that gave them:

| Mean activation at 100 μM | Mean efficacy of compound combined with 1 μM of SNP, [%] | Emax at 100 µM [%] | SMILES |
| --- | --- | --- | --- |
| 7.2 | 258 | 119 | COc1ccc(Sc2ccccc2/C=C/C(=O)NC2CCC(O)CC2)cc1 (centres unmarked) [Example 51, (2E)-N-(4-hydroxycyclohexyl)-3-{2-[(4-methoxyphenyl)thio]phenyl}acrylamide] |
| 2.6 | 28 | 1 | O=C(CCc1ccccc1Sc1ccc(Cl)cc1)NC1CCC(O)CC1 (centres unmarked) [Example 4, 3-{2-[(4-chlorophenyl)thio]phenyl}-N-(4-hydroxycyclohexyl)propanamide] |
| 2.7 | 50 | 11 | Cc1cccc(Sc2ccccc2/C=C/C(=O)NC2CCC(O)CC2)c1 (centres unmarked) [Example 52, (2E)-N-(4-hydroxycyclohexyl)-3-{2-[(3-methylphenyl)thio]phenyl}acrylamide] |
| 2.8 | 44 | 16 | Cc1ccc(Sc2ccccc2/C=C/C(=O)NC2CCCCC2O)cc1 (centres unmarked) [Example 47, (2E)-N-(2-hydroxycyclohexyl)-3-{2-[(4-methylphenyl)thio]phenyl}acrylamide] |
|  | 138 | 38 | O=C(/C=C/c1cccnc1Sc1ccc(Cl)cc1Cl)NC1CCC(O)CC1 (centres unmarked) [Example 17, (2E)-3-{2-[(2,4-dichlorophenyl)thio]-3-pyridinyl}-N-(4-hydroxycyclohexyl)acrylamide] |
| 8.4 | 303 | 200 | CC(C)CCSc1ccccc1/C=C/C(=O)NCCCO [Example 57, (2E)-N-(3-hydroxypropyl)-3-{2-[(3-methylbutyl)thio]phenyl}acrylamide] |
| 4.8 | 120 | 37 | O=C(/C=C/c1cccnc1Sc1ccccc1)NC1CCC(O)CC1 (centres unmarked) [Example 19, (2E)-N-(4-hydroxycyclohexyl)-3-[2-(phenylthio)-3-pyridinyl]acrylamide] |
| 10.2 | 165 | 103 | CC(C)CCSc1ccccc1/C=C/C(=O)N1CCCC(O)C1 (centres unmarked) [Example 61, 1-((2E)-3-{2-[(3-methylbutyl)thio]phenyl}-2-propenoyl)-3-piperidinol] |
| 5.3 | 213 | 143 | CC(C)CCSc1ccccc1/C=C/C(=O)NC1CCC(O)CC1 (centres unmarked) [Example 55, (2E)-N-(4-hydroxycyclohexyl)-3-{2-[(3-methylbutyl)thio]phenyl}acrylamide] |
| 2.7 | 187 | 174 | O=C(/C=C/c1ccccc1SC1CCCCC1)NC1CCCCC1O (centres unmarked) [Example 23, (2E)-3-[2-(cyclohexylthio)phenyl]-N-(2-hydroxycyclohexyl)acrylamide] |
